Values of other authors as cited in patent US9040672B2, “Devices and methods for reducing matrix effects” (Agilent Technologies, Inc., priority 2007, dated 2015).

Conditions: octanol-water partition coefficient

Row | Structure (SMILES) | Log P
1 | NC(=O)N1c2ccccc2C=Cc2ccccc21 [carbamazepine] | 2.69
2 | CC[C@@H]([C@H](C)O)n1ncn(-c2ccc(N3CCN(c4ccc(OC[C@@H]5CO[C@@](Cn6cncn6)(c6ccc(F)cc6F)C5)cc4)CC3)cc2)c1=O [posaconazole] | 5.66
